Several values for one entry are separate records, joined by “and”; a condition that tells them apart may be missing. Identical values can stand only once. Toxic doses and inconclusive results are not listed. Rule as the data show it: active = T/C of 150% or more; inactive = T/C below 125%.
System: L1210 leukemia ip in BDF1 mice, survival T/C
Assay: NCI In Vivo Anticancer Drug Screen. Data for tumor model L1210 Leukemia (intraperitoneal) in B6D2F1 (BDF1) mice
Conditions: endpoint: mean survival time, higher = longer survival
In short: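 Read-out is survival time, reported as the treated-group measurement over the vehicle-control measurement.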

[1] = dose: 100.0 mg/kg/injection, schedule: Q04DX003 (ip), vehicle: saline with Tween-80
[2] = dose: 200.0 mg/kg/injection, schedule: Q04DX003 (ip), vehicle: saline with Tween-80
[3] = dose: 100.0 mg/kg/injection, schedule: Q01DX009 (ip), vehicle: Klucel (hydroxypropylcellulose) (HPC)
[4] = dose: 100.0 mg/kg/injection, schedule: Q04DX003 (ip), vehicle: Klucel (hydroxypropylcellulose) (HPC)
[5] = dose: 200.0 mg/kg/injection, schedule: Q01DX009 (ip), vehicle: Klucel (hydroxypropylcellulose) (HPC)
[6] = dose: 200.0 mg/kg/injection, schedule: Q04DX003 (ip), vehicle: Klucel (hydroxypropylcellulose) (HPC)
[7] = dose: 400.0 mg/kg/injection, schedule: Q04DX003 (ip), vehicle: Klucel (hydroxypropylcellulose) (HPC)
[8] = dose: 100.0 mg/kg/injection, schedule: Q01DX009 (ip), vehicle: saline with Tween-80
[9] = dose: 200.0 mg/kg/injection, schedule: Q01DX009 (ip), vehicle: saline with Tween-80
[10] = dose: 100.0 mg/kg/injection, schedule: Q01DX001 (ip), vehicle: saline
[11] = dose: 200.0 mg/kg/injection, schedule: Q01DX001 (ip), vehicle: saline
[12] = dose: 400.0 mg/kg/injection, schedule: Q01DX001 (ip), vehicle: saline

Measured: T/C

Cc1nc(N)nc2c1CCC(O)S2 (centres undefined)
inactive: dose: 50.0 mg/kg/injection, schedule: Q01DX001 (ip), vehicle: Klucel (hydroxypropylcellulose) (HPC) 89 % of control | dose: 200.0 mg/kg/injection, schedule: Q01DX001 (ip), vehicle: Klucel (hydroxypropylcellulose) (HPC) 86 % of control

O=C1OC(=O)C2C3CC(C4OC34)C12 (centres undefined)
inactive: [1] 95 % of control | [2] 100 % of control | dose: 400.0 mg/kg/injection, schedule: Q04DX003 (ip), vehicle: saline with Tween-80 94 % of control

CN(C)Cc1ccc(Cl)cc1C(O)(c1ccccc1)c1ccccc1
inactive: dose: 50.0 mg/kg/injection, schedule: Q01DX001 (ip), vehicle: carboxymethylcellulose (CMC) 101 % of control | dose: 100.0 mg/kg/injection, schedule: Q01DX001 (ip), vehicle: carboxymethylcellulose (CMC) 104 % of control | dose: 200.0 mg/kg/injection, schedule: Q01DX001 (ip), vehicle: carboxymethylcellulose (CMC) 93 % of control | dose: 400.0 mg/kg/injection, schedule: Q01DX001 (ip), vehicle: carboxymethylcellulose (CMC) 93 % of control

ClCCN(CCCl)c1ccc(C[n+]2ccc3ccccc3c2)cc1
inactive: dose: 8.0 mg/kg/injection, schedule: Q01DX015 (ip), vehicle: carboxymethylcellulose (CMC) 109 % of control | dose: 16.0 mg/kg/injection, schedule: Q01DX015 (ip), vehicle: carboxymethylcellulose (CMC) 113 % of control | dose: 32.0 mg/kg/injection, schedule: Q01DX015 (ip), vehicle: carboxymethylcellulose (CMC) 106 % of control

Nc1nc(N)c(-c2ccc(Cl)cc2)c(COc2cccc([N+](=O)[O-])c2)n1
inactive: dose: 75.0 mg/kg/injection, schedule: Q01DX001 (ip), vehicle: carboxymethylcellulose (CMC) 89 % of control | dose: 150.0 mg/kg/injection, schedule: Q01DX001 (ip), vehicle: carboxymethylcellulose (CMC) 92 % of control | dose: 300.0 mg/kg/injection, schedule: Q01DX001 (ip), vehicle: carboxymethylcellulose (CMC) 93 % of control

Brc1cc(Br)c(-c2c(Br)cc(Br)cc2Br)c(Br)c1
inactive: dose: 50.0 mg/kg/injection, schedule: Q01DX009 (ip), vehicle: Klucel (hydroxypropylcellulose) (HPC) 111 % of control | [3] 93 % of control | [4] 108 % of control | [5] 101 % of control | [6] 105 % of control | dose: 400.0 mg/kg/injection, schedule: Q01DX009 (ip), vehicle: Klucel (hydroxypropylcellulose) (HPC) 98 % of control | [7] 95 % of control

COc1ccc(C(=O)N(N)C2CCCCC2)cc1
inactive: [1] 93 % of control | [2] 102 % of control

COC(=O)Nc1cccc(C)c1C
inactive: dose: 100.0 mg/kg/injection, schedule: Q04DX003 (ip), vehicle: other 103 % of control | dose: 200.0 mg/kg/injection, schedule: Q04DX003 (ip), vehicle: other 102 % of control | dose: 400.0 mg/kg/injection, schedule: Q04DX003 (ip), vehicle: other 108 % of control

CC(C)c1ccc2c(c1)CCC1C2CCCC1(C)NCc1ccccc1 (centres undefined)
inactive: dose: 55.0 mg/kg/injection, schedule: Q01DX Z (ip), vehicle: methylcellulose (MC) 87 % of control

C(=C\c1cccnc1)/c1ccncc1
inactive: dose: 50.0 mg/kg/injection, schedule: Q04DX003 (ip), vehicle: saline with Tween-80 97 % of control | [1] 102 % of control

c1ccc2c3c([nH]c2c1)CCCC3
inactive: [3] 97 % of control | [4] 107 % of control | [5] 113 % of control | [6] 105 % of control | [7] 102 % of control

O=C(CCCl)OCCCl
inactive: dose: 50.0 mg/kg/injection, schedule: Q01DX009 (ip), vehicle: saline sonified 94 % of control | dose: 100.0 mg/kg/injection, schedule: Q01DX009 (ip), vehicle: saline sonified 96 % of control | dose: 200.0 mg/kg/injection, schedule: Q01DX009 (ip), vehicle: saline sonified 94 % of control

c1cc(OCCN2CC2)ccn1
inactive: dose: 12.5 mg/kg/injection, schedule: Q01DX001 (ip), vehicle: carboxymethylcellulose (CMC) 98 % of control | dose: 25.0 mg/kg/injection, schedule: Q01DX001 (ip), vehicle: carboxymethylcellulose (CMC) 108 % of control

O=NN(CC(F)(F)F)C(=O)NC1CCCCC1 (tested in a mixture with another compound)
inactive: dose: 8.0 mg/kg/injection, schedule: Q01DX001 (ip), vehicle: other 100 % of control | dose: 16.0 mg/kg/injection, schedule: Q01DX001 (ip), vehicle: other 95 % of control | dose: 31.0 mg/kg/injection, schedule: Q01DX001 (ip), vehicle: other 94 % of control | dose: 62.0 mg/kg/injection, schedule: Q01DX001 (ip), vehicle: other 97 % of control | dose: 125.0 mg/kg/injection, schedule: Q01DX001 (ip), vehicle: other 101 % of control | dose: 250.0 mg/kg/injection, schedule: Q01DX001 (ip), vehicle: other 94 % of control | dose: 375.0 mg/kg/injection, schedule: Q01DX001 (ip), vehicle: other 101 % of control

N=C(OC1CCCCC1)N(Cc1ccccc1)Cc1ccccc1
inactive: dose: 44.0 mg/kg/injection, schedule: Q01DX Z (ip), vehicle: methylcellulose (MC) 104 % of control | dose: 66.0 mg/kg/injection, schedule: Q01DX Z (ip), vehicle: methylcellulose (MC) 104 % of control | dose: 100.0 mg/kg/injection, schedule: Q01DX Z (ip), vehicle: methylcellulose (MC) 117 % of control

CC(C)CC(Br)C(=O)NCC(=O)NC(Cc1ccccc1)C(=O)O (centres undefined)
inactive: [8] 96 % of control | [9] 93 % of control

CCCC(NC(C)=O)C(=O)O (centres undefined)
inactive: [10] 94 % of control | dose: 100.0 mg/kg/injection, schedule: Q01DX009 (ip), vehicle: saline 94 % of control and 101 % of control | dose: 100.0 mg/kg/injection, schedule: Q04DX002 (ip), vehicle: saline 98 % of control and 111 % of control and 112 % of control | dose: 100.0 mg/kg/injection, schedule: Q04DX003 (ip), vehicle: saline 98 % of control | [11] 96 % of control | dose: 200.0 mg/kg/injection, schedule: Q01DX009 (ip), vehicle: saline 94 % of control and 90 % of control | dose: 200.0 mg/kg/injection, schedule: Q04DX002 (ip), vehicle: saline 108 % of control and 122 % of control and 123 % of control | dose: 200.0 mg/kg/injection, schedule: Q04DX003 (ip), vehicle: saline 96 % of control | [12] 93 % of control | dose: 400.0 mg/kg/injection, schedule: Q01DX009 (ip), vehicle: saline 99 % of control and 87 % of control | dose: 400.0 mg/kg/injection, schedule: Q04DX002 (ip), vehicle: saline 98 % of control and 111 % of control and 112 % of control | dose: 400.0 mg/kg/injection, schedule: Q04DX003 (ip), vehicle: saline 95 % of control

CC(=O)c1c(O)cc(O)cc1O
inactive: [8] 96 % of control | [9] 91 % of control | dose: 400.0 mg/kg/injection, schedule: Q01DX009 (ip), vehicle: saline with Tween-80 98 % of control

COc1cc(/C(C)=N\N(C)C)ccc1O
inactive: dose: 50.0 mg/kg/injection, schedule: Q01DX001 (ip), vehicle: saline 100 % of control | [10] 96 % of control | [11] 100 % of control | [12] 96 % of control

O=C(Nc1ncc([N+](=O)[O-])s1)c1ccc(Cl)s1
inactive: dose: 6.25 mg/kg/injection, schedule: Q04DX002 (ip), vehicle: Klucel (hydroxypropylcellulose) (HPC) 94 % of control | dose: 12.5 mg/kg/injection, schedule: Q04DX002 (ip), vehicle: Klucel (hydroxypropylcellulose) (HPC) 91 % of control | dose: 25.0 mg/kg/injection, schedule: Q04DX002 (ip), vehicle: Klucel (hydroxypropylcellulose) (HPC) 87 % of control

Cc1nn(C2CC(OC(=O)c3ccc([N+](=O)[O-])cc3)C(OC(=O)c3ccc([N+](=O)[O-])cc3)C(COC(=O)c3ccc([N+](=O)[O-])cc3)O2)c(=O)[nH]c1=O (centres undefined)
inactive: dose: 100.0 mg/kg/injection, schedule: Q01DX005 (ip), vehicle: saline 100 % of control | dose: 200.0 mg/kg/injection, schedule: Q01DX005 (ip), vehicle: saline 96 % of control

CC(C)=CC(=O)OCC[N+](C)(C)C
inactive: dose: 3.12 mg/kg/injection, schedule: Q01DX009 (ip), vehicle: saline 104 % of control | dose: 6.25 mg/kg/injection, schedule: Q01DX009 (ip), vehicle: saline 98 % of control | dose: 12.5 mg/kg/injection, schedule: Q01DX009 (ip), vehicle: saline 102 % of control and 109 % of control

Reference: PubChem BioAssay AID248 (DTP/NCI, 2004)
